This note sets out measurements from ChEMBL document CHEMBL1201862, “PubChem BioAssay data set” (2004).

The structures appear in SMILES notation. Active and inactive are the calls of the source.

A short description of experiment [1]: inhibitors of Vif binding to APOBEC3G peptide, primary screen, biochemical, TR-FRET, GST-Vif 1-94, biotin-A3G peptide, dose response retest (AID 1117319).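 Note: inhibitors lower the FRET signal by blocking Vif and A3G binding.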 It counts as functional. In general terms: In TR-FRET formats the signal depends on donor and acceptor labels being close together.
Experiment [2] concerns the target T1, Carboxy-terminal domain RNA polymerase II polypeptide A small phosphatase 1 (Homo sapiens, UniProt Q9GZU7).
T1 sequence (Q9GZU7 whole entry): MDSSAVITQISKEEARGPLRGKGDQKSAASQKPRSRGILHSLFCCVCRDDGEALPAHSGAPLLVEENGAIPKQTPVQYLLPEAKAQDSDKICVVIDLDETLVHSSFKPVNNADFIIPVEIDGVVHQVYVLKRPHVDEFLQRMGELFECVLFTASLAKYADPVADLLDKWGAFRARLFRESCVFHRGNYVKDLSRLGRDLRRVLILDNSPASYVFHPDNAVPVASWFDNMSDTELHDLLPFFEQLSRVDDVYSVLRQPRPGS
The experiment can be described thus: inhibitors of CTDSP1, concentration-response testing, biochemical assay, absorbance-based, actives from ultra-high-throughput screening (AID 540297). The experiment is classed as functional.

The target in experiment [3] is T2, Zinc finger protein mex-5 (Caenorhabditis elegans, UniProt Q9XUB2).
T2 sequence (Q9XUB2 whole entry): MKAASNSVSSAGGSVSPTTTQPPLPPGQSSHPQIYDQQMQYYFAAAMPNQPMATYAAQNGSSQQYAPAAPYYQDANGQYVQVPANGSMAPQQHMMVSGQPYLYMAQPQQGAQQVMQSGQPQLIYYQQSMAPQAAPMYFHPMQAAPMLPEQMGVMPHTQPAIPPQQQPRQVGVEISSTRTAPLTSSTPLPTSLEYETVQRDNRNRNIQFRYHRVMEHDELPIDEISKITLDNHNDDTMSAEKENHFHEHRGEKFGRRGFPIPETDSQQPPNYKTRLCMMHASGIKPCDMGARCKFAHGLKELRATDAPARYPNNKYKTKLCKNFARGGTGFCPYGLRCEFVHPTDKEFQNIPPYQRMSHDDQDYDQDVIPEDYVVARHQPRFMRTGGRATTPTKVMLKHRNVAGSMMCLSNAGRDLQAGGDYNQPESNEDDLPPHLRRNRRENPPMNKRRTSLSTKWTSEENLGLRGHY
The experiment can be described thus: MEX-5/TCR-2 RNA interaction inhibitors, dose response, biochemical, C. elegans, fluorescence polarization (AID 1960). On the technique in general: Polarisation of emitted light reports the rotation of a fluorescent probe.

In the next experiment the target is Large T antigen (Simian virus 40, UniProt P03070). The experiment is classed as functional, Betapolyomavirus macacae.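 Note: Confirmatory-stage PubChem screen for compounds that inhibit SV40 T antigen.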
The target of experiment [4] is DNA dC->dU-editing enzyme APOBEC-3A (Homo sapiens, UniProt P31941). The experiment can be described thus: Dose Response confirmation of small molecule APOBEC3A DNA Deaminase Inhibitors via a fluorescence-based single-stranded DNA deaminase assay. [Related pubchem assays (depositor defined):AID493011, AID493024]. It counts as functional.
For experiment [5], the target named is T3, RNA-binding protein pos-1 (Caenorhabditis elegans, UniProt G5EF15).
T3 sequence (G5EF15 whole entry): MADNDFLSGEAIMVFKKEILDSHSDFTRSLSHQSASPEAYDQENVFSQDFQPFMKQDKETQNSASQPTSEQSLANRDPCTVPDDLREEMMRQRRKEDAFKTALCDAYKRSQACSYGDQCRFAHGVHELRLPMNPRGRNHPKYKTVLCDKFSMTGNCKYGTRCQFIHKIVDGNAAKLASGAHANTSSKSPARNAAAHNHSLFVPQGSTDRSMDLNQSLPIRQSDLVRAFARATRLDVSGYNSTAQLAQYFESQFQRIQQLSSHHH
The experiment can be described thus: inhibitors of POS-1/mex-3 RNA binding, dose response, biochemical, fluorescence polarization (AID 1964).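 Note: purified POS-1 fused to maltose binding protein made in E. coli; potency of compounds blocking POS-1 binding to fluorescent RNA.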

Experiment [6] has as its target DNA dC->dU-editing enzyme APOBEC-3G (Homo sapiens, UniProt Q9HC16). The experiment is classed as functional.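 Note: Dose-response counterscreen measuring inhibition of APOBEC3G DNA deaminase activity, run while confirming APOBEC3A inhibitors.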
The target in a further experiment is T4, Protein Tat (Human immunodeficiency virus type 1 group M subtype B (isolate HXB2)(HIV-1), UniProt P04608).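 Note: tat binding to TAR RNA read out by fluorescence polarization.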
T4 sequence (P04608 whole entry): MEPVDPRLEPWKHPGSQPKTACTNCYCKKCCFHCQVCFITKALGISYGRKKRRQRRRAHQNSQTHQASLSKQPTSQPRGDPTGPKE
It counts as functional.

Experiment [7] deals with Voltage-dependent T-type calcium channel subunit alpha-1H (Homo sapiens, UniProt O95180). The experiment is classed as functional.
A short description of experiment [8]: HEp-2 cell cytotoxicity, dose response, cytotoxicity control for RSV inhibitor project, HTS (AID 2410). The experiment is classed as functional. The following applies: human respiratory syncytial virus.
A short description of experiment [9]: cells.
The subject of experiment [10] is Vero. The experiment can be described thus: cells. The experiment is classed as functional, cell-based. The following applies: Chlorocebus sabaeus.
Experiment [11] has as its target Eukaryotic translation initiation factor 4E (Mus musculus, UniProt P63073). The experiment can be described thus: eIF4E–eIF4G protein interaction inhibitors, dose response, biochemical, TR-FRET (AID 855).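 Note: potency for disrupting eIF4E binding to eIF4GI seen as loss of FRET.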 The experiment is classed as functional.
Experiment [12] deals with T5, E3 ubiquitin-protein ligase XIAP (Homo sapiens, UniProt P98170). The experiment is described as follows: Counter Screen using XIAP-Bir3 for Chemical Antagonists of Bir1/2 domains of IAP-family anti-apoptotic proteins. [Related pubchem assays (depositor defined):AID1018, AID1449, AID1514, AID1638, AID1749, AID1750, AID488957, AID488963]. (In general: The purpose of a counterscreen is to sort out artefacts and off-target activity.)

Experiment [13] deals with T5, E3 ubiquitin-protein ligase XIAP. The experiment is described as follows: XIAP antagonists, biochemical, IAP family, fluorescence polarization (AID 1018). The experiment is classed as functional.
A short description of experiment [14]: Vero E6 cell cytotoxicity, dose response, cytotoxicity control for non-replicating M. tuberculosis project, secondary assay (AID 492998). The experiment is classed as functional, VeroE6. The following applies: Vero C1008.
Experiment [15] concerns Vero. The experiment can be described thus: cells. The experiment is classed as functional. The following applies: Chlorocebus sabaeus.
Experiment [16] in a line: cells. It counts as functional.
A short description of experiment [17]: microbe, parasite or virus in culture. The experiment is classed as functional. Particulars: Mycobacterium tuberculosis.
A short description of experiment [18]: THP-1 cell cytotoxicity, dose response, cytotoxicity control for non-replicating M. tuberculosis project (AID 489025). It counts as functional.
The nature of experiment [19]: HepG2 cell cytotoxicity, dose response, cytotoxicity control for non-replicating M. tuberculosis project (AID 489018). The experiment is classed as functional. The following applies: Mycobacterium tuberculosis.
Experiment [20] can be described thus: Jurkat T cell cytotoxicity, dose response, cytotoxicity control for P. falciparum gametocyte viability project, luminescence (AID 1117277).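 Note: potency reflects loss of cellular ATP meaning fewer viable cells.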 It counts as functional, cell-based.
A short description of experiment [21]: P. falciparum late gametocyte killing, dose response, luminescence (AID 1117278).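 Note: gametocytes exposed to compound for 24 hours.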 The experiment is classed as functional, cell-based.
For experiment [22], the target named is T6, Estrogen receptor beta (Homo sapiens, UniProt Q92731). The experiment is described as follows: ERβ–SRC-3 coactivator interaction inhibitors, confirmation, orthogonal assay, biochemical, ELISA, streptavidin-HRP readout (AID 1060).
The target of experiment [23] is T6, Estrogen receptor beta.
Experiment [24] addresses T7, Ubiquitin-conjugating enzyme E2 N (Homo sapiens, UniProt P61088).
T7 sequence (P61088 whole entry): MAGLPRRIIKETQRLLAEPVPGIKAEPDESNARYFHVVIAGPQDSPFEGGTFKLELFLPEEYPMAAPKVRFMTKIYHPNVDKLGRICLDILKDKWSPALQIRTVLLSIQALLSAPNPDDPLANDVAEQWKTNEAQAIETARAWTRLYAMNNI
The experiment is classed as functional.

Another experiment deals with T8, Bcl-2-related protein A1 (Mus musculus, UniProt Q07440).
T8 sequence (Q07440 whole entry): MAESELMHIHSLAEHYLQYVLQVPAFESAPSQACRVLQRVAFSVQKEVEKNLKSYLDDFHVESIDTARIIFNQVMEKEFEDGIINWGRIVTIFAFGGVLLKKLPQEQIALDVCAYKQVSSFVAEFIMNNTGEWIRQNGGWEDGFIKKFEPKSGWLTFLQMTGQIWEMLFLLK
The experiment is classed as functional.

Eukaryotic translation initiation factor 4E, sequence (P63073 whole entry): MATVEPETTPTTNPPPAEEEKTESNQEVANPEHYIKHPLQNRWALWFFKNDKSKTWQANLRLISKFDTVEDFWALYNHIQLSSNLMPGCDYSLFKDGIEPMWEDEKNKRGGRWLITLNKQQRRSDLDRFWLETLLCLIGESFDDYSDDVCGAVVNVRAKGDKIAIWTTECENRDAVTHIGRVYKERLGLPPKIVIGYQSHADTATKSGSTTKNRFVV
T5 sequence (P98170 whole entry): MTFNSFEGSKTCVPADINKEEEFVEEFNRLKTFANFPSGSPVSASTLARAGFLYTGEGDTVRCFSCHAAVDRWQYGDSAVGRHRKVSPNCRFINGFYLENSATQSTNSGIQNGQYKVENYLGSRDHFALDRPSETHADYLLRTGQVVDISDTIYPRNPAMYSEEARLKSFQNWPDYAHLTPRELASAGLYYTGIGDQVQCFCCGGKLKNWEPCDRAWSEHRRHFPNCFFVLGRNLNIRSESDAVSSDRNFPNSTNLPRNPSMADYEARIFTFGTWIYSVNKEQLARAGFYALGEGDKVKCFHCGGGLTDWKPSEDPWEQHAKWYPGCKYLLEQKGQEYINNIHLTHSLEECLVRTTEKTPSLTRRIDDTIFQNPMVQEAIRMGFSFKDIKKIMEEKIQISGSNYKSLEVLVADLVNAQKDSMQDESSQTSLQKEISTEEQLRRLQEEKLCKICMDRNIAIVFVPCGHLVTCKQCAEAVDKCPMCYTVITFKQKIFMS
T6 sequence (Q92731 whole entry): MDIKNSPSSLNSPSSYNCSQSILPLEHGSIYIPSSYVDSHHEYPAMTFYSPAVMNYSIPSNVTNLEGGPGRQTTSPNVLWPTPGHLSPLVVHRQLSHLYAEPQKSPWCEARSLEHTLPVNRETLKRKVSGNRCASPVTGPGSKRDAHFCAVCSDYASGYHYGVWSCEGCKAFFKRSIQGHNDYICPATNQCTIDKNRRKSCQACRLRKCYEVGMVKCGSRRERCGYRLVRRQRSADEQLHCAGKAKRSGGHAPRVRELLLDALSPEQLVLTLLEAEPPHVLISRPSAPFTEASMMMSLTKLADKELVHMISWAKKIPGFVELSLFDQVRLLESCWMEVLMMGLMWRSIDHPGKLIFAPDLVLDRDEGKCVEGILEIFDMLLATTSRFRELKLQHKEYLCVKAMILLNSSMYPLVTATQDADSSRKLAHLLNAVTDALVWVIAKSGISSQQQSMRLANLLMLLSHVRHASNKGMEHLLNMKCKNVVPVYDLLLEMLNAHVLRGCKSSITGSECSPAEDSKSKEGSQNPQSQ
Voltage-dependent T-type calcium channel subunit alpha-1H, sequence (O95180 whole entry): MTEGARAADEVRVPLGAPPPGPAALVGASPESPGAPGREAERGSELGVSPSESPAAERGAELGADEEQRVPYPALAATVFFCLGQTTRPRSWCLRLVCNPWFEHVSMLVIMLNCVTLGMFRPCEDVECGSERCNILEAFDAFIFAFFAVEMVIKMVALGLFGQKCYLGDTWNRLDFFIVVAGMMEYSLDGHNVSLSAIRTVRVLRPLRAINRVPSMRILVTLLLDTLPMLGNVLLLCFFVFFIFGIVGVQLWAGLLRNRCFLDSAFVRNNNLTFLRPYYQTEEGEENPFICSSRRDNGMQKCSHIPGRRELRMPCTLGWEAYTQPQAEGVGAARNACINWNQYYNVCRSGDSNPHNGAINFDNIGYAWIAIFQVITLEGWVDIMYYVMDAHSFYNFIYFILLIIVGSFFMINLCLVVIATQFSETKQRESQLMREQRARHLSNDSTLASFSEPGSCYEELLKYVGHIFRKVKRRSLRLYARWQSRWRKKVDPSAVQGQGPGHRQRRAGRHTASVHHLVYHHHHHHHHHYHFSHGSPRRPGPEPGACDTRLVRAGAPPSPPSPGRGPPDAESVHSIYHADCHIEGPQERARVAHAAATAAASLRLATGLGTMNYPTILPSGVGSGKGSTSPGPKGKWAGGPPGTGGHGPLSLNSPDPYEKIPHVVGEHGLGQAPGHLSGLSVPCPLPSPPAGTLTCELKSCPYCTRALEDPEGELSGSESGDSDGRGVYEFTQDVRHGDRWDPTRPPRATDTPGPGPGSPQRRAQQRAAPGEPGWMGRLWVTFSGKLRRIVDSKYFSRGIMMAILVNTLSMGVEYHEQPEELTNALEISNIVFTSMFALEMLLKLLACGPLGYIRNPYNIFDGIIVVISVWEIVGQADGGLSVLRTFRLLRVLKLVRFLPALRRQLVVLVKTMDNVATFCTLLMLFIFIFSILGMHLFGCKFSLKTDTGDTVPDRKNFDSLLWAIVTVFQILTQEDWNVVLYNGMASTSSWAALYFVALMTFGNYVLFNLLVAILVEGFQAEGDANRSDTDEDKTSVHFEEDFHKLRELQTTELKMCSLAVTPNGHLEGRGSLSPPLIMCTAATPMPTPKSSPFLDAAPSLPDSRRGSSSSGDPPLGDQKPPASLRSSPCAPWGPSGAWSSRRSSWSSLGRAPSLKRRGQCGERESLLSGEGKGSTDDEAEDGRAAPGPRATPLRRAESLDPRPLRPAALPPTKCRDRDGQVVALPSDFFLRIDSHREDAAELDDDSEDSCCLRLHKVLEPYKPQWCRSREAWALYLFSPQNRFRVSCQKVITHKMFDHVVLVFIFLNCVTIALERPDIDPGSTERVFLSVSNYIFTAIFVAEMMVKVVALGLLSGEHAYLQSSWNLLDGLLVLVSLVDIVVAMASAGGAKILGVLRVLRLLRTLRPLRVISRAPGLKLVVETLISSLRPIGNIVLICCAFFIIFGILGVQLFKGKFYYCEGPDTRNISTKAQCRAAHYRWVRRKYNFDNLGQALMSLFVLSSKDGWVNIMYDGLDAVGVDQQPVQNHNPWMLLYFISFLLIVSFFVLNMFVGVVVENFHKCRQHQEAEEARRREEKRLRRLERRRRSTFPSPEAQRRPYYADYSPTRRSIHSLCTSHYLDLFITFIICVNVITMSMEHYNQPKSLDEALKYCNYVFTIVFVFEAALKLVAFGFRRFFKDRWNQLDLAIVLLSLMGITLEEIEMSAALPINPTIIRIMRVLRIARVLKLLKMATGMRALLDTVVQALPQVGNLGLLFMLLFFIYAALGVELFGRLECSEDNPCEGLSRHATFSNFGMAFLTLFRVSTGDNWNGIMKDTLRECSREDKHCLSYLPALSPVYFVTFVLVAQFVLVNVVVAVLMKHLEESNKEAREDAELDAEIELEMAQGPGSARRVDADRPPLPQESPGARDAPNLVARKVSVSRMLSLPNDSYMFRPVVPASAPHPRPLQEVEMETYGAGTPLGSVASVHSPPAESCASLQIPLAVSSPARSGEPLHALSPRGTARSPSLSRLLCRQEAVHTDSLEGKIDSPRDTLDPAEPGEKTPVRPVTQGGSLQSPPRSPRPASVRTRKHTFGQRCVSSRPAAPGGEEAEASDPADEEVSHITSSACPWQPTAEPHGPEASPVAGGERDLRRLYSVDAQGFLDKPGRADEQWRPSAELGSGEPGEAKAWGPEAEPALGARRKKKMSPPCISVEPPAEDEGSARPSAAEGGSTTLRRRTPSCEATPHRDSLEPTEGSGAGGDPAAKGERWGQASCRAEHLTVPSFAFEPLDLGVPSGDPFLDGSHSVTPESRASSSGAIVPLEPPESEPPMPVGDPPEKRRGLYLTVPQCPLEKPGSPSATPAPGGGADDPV
DNA dC->dU-editing enzyme APOBEC-3A, sequence (P31941 whole entry): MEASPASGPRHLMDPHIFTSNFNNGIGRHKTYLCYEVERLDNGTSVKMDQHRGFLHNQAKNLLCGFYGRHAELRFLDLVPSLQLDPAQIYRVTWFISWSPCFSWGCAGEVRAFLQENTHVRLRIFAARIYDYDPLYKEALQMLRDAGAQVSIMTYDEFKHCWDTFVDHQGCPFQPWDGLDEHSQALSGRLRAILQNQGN
Large T antigen, sequence (P03070 whole entry): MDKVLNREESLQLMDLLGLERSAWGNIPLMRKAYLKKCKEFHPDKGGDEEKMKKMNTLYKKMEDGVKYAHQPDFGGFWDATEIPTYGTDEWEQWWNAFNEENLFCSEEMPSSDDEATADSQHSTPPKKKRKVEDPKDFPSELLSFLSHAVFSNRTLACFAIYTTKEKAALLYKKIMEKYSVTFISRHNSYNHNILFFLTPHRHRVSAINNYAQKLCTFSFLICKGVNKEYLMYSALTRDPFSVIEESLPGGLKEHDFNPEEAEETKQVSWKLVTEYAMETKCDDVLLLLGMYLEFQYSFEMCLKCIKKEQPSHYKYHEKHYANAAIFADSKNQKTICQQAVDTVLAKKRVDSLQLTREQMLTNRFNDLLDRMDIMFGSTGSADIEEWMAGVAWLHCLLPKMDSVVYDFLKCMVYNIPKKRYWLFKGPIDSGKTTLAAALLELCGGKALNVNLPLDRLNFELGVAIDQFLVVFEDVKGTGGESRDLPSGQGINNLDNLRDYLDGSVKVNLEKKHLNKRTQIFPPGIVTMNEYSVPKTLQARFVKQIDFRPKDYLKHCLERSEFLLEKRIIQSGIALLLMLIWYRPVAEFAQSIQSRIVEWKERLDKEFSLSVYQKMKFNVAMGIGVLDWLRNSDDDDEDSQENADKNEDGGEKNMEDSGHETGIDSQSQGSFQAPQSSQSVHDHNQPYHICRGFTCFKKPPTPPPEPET
DNA dC->dU-editing enzyme APOBEC-3G, sequence (Q9HC16 whole entry): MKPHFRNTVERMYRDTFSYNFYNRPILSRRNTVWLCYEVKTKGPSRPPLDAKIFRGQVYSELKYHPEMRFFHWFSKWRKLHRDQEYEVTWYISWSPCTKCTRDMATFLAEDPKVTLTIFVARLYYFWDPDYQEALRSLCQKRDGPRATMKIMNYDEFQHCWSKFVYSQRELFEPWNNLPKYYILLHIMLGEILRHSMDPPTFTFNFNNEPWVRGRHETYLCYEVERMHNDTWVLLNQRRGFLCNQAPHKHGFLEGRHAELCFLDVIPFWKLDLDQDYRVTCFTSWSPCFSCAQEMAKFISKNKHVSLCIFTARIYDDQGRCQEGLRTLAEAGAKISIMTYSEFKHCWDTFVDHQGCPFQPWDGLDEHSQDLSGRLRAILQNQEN

For orientation: IC50 means the concentration that gives 50% inhibition. As to `COC(=O)c1sc(NC(=O)c2ccc(Cn3cc(Cl)cn3)o2)c(C#N)c1C`, the IC50 in experiment [1] is > 100 µM (active). Broadly, the EC50 is the concentration needed to bring the measured effect to its halfway point. In the case of `N#Cc1ccccc1CN1C(=O)S/C(=C/c2cccn2-c2cccc(C(=O)O)c2)C1=O`, the IC50 in experiment [2] is 5.19 µM (active); on Large T antigen it was > 100 µM (active); in experiment [4], 14.9 µM (active); in experiment [6] it was 37 µM (active); on Protein Tat, > 100 µM (active). Besides, the EC50 in experiment [3] and in experiment [5] was > 300 µM (not active) each time. As for `Cc1nn(Cc2ccc(Cl)c(Cl)c2)c(C)c1NC(=O)c1cc(-c2ccco2)on1`, in experiment [7], the EC50 was 1.35 µM (active). The same measure, in the same setting: next, `CC1Cc2ccccc2N1C(=O)c1cc2sccc2n1Cc1ccc(F)cc1` (centres undefined): 5.86 µM (active).

Consider `O=S(=O)(c1cccc(-c2csc(-c3ccccc3)n2)c1)N1CCOCC1`, for which the CC50 in experiment [8] is 37.8 µM (active). In “cells [9]”, the IC50 is 28.4 µM (active). Consider `Cc1ccc(Nc2nc(=O)c3cccnc3s2)c(Br)c1`, for which, in [8], the CC50 was 22.8 µM (active). The IC50 was 25 µM (active) in the experiment “cells [9]” and > 25 µM (active) with Vero [10]. For `Cc1ccc(Nc2nc3ccccc3nc2-n2nc(C)cc2C)cc1`, in experiment [11], the IC50 is > 64 µM (inactive).

For the molecule `O=C(NCc1cccs1)c1noc2c1CCCCC2`, the IC50 in [12] was > 100 µM (inactive); in [13] it was > 100 µM (not active). For `Cc1cccc(/C=C/c2onc(C)c2[N+](=O)[O-])n1`, the CC50 in experiment [14] is 6.87 µM (active); with Vero [15], 13.8 µM (active); in [17], 14.3 µM (active); in experiment [18], 7.76 µM (active); in experiment [19], > 20 µM (active). Also, the IC50 in “cells [16]” was 8.06 µM (active). Regarding `C=CCN1C(=O)CSc2ccc(C(=O)NCc3ccco3)cc21`, in experiment [1], the concentration for half-maximal inhibition (IC50) is > 100 µM (active). `Cc1cccc(OCCN2C(=O)c3ccccc3C2=O)c1`: the IC50 is > 83.2 µM (inactive) in experiment [20] and > 109 µM (inactive) in [21]. Turning to `O=C(CSCC(=O)N1CCN(c2ccccc2)CC1)Nc1nc(-c2ccc(Cl)s2)cs1`, in experiment [7], the EC50 is 4.28 µM (active).

For the molecule `Cc1cc(C)n(Cc2ccc(Cl)nc2)n1`, the IC50 in [20] was > 83.3 µM (inactive); in experiment [21], > 109 µM (inactive).

As for `CCCC(c1nnnn1CC(=O)OCC)N(Cc1cc2c(C)cc(C)cc2nc1O)C1CCCC1` (centres undefined), the IC50 in “cells [9]” is 6.29 µM (active). Regarding `CSc1nnc(Cn2c(=O)sc3ccccc32)n1-c1cccc(Cl)c1`, the CC50 in experiment [8] was > 50 µM (active). In addition, in “cells [9]”, the IC50 is 8.48 µM (active).

For `COCCNC(C)C(=O)C12CC3CC(CC(C3)C1)C2` (centres undefined), the IC50 in experiment [1] was > 100 µM (active).

On to `Cc1cc(C)nc(N2CCCC(C(=O)Nc3cc(F)ccc3C)C2)n1` (centres undefined), for which the IC50 is > 100 µM (inactive) in experiment [12] and > 100 µM (not active) in experiment [13]. The like results for `Cc1cc(CNC(=O)COc2ccccc2)c2ccccc2n1` were, in that order, > 100 µM (inactive) and > 100 µM (not active). As for `Nc1c(Cl)cc(Cl)cc1C(=O)OCC(=O)NC1CC1`, the results for the IC50 against Estrogen receptor beta [22] and on Estrogen receptor beta [23] were < 0.023 µM (not active) and 26.5 µM (active), respectively. For `COc1cc(C(=O)NCc2ccc(C(=O)NCC(OC)OC)cc2)cc(OC)c1OC`, in experiment [11], the IC50 was 50 µM (inactive). The same measure, in the same setting: the figure for `COC(=O)CSc1nnc(-c2cccc(NC(=O)c3ccc(C)cc3)c2)n1C` is > 64 µM (inactive).

For the molecule `O=C(Cn1cnc2c(oc3ccccc32)c1=O)N1CCCC1`, the IC50 in [20] was > 83.4 µM (inactive); in [21], > 109 µM (inactive). For `CC1CCCC(C)N1CC(=O)Nc1sc2c(c1C#N)CCCC2` (centres undefined), on Estrogen receptor beta [22], the IC50 was 0.0372 µM (not active).

As to `CCOc1ccccc1CNCCNC(=O)c1nonc1N`, the IC50 is > 83.3 µM (inactive) in experiment [20] and > 109 µM (inactive) in experiment [21]. With `N#Cc1ccc(OCC(=O)NNC(=S)NC(=O)C2CC2)cc1`, the half-inhibitory concentration (IC50) in experiment [24] was 6.5 µM (active); at Bcl-2-related protein A1 it was > 20 µM (inactive).
